#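 Dose response: 5 concentrations. Exposure: 48 h. Format: 96-well plates. Endpoint: linear interpolation; highest concentration if not reached. GI50 is the concentration that inhibits growth by half. At the TGI there is no net growth.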
# What was measured:
# Assay in all cases: inhibition of tumour cell growth, NCI panel, 48 h
# [1] = test system: 786-0 renal
# [2] = test system: DU-145 prostate
# [3] = test system: HCC-2998 colon
# [4] = test system: HCT-15 colon
# [5] = test system: HOP-62 NSCLC
# [6] = test system: K-562 leukemia
# [7] = test system: MDA-MB-231 breast
# [8] = test system: OVCAR-4 ovarian
# [9] = test system: TK-10 renal
# [10] = test system: UO-31 renal
smiles,measurement,setting,value
CCC1(CC)C(=O)NN(C(=O)c2ccccc2)C1=O,TGI,[1],> 100 µM
same,TGI,[2],> 100 µM
same,TGI,[3],> 100 µM
same,TGI,[4],> 100 µM
same,TGI,[5],> 100 µM
same,TGI,[6],> 100 µM
same,TGI,[7],> 100 µM
same,TGI,[8],> 100 µM
same,TGI,[9],> 100 µM
same,TGI,[10],> 100 µM
CCCCCCOc1ccc(C(=O)NOC)cc1,TGI,[1],> 100 µM
same,TGI,[2],> 100 µM
same,TGI,[3],> 100 µM
same,TGI,[4],> 100 µM
same,TGI,[5],> 100 µM
same,TGI,[6],> 100 µM
same,TGI,[7],> 100 µM
same,TGI,[8],> 100 µM
same,TGI,[9],> 100 µM
same,TGI,[10],> 100 µM
Cc1c(S(=O)(=O)c2ccccc2)c(N)n(CCN(C)C)c1C,TGI,[1],> 100 µM
same,TGI,[2],> 100 µM
same,TGI,[3],> 100 µM
same,TGI,[4],> 100 µM
same,TGI,[6],> 100 µM
same,TGI,[7],> 100 µM
same,TGI,[8],> 100 µM
same,TGI,[9],> 100 µM
same,TGI,[10],> 100 µM
CCN(CC)CCN(C(=Nc1ccccc1)N1CCOCC1)c1ccccc1,TGI,[1],> 100 µM
same,TGI,[2],> 100 µM
same,TGI,[3],> 100 µM
same,TGI,[4],> 100 µM
same,TGI,[5],> 100 µM
same,TGI,[6],> 100 µM
same,TGI,[7],> 100 µM
same,TGI,[8],> 100 µM
same,TGI,[9],> 100 µM
same,TGI,[10],> 100 µM
CCNC(=O)Cc1nc2c(N)ncnc2n1C1OC(CO)C(O)C1O (stereo not given),TGI,[1],> 100 µM
same,TGI,[2],> 100 µM
same,TGI,[3],> 100 µM
same,TGI,[4],> 100 µM
same,TGI,[5],> 100 µM
same,TGI,[6],> 100 µM
same,TGI,[7],> 100 µM
same,TGI,[8],> 100 µM
same,TGI,[9],> 100 µM
same,TGI,[10],> 100 µM
NC1=NCC(CN2CCOCC2)O1 (stereo not given),TGI,[1],> 100 µM
same,TGI,[2],> 100 µM
same,TGI,[3],> 100 µM
same,TGI,[4],> 100 µM
same,TGI,[5],> 100 µM
same,TGI,[6],> 100 µM
same,TGI,[7],> 100 µM
same,TGI,[8],> 100 µM
same,TGI,[9],> 100 µM
same,TGI,[10],> 100 µM
CCN(CC)CCn1c(=O)c2cccnc2n2c3c(=O)n(C)c(=O)n(C)c3nc12,TGI,[1],> 100 µM
same,TGI,[2],> 100 µM
same,TGI,[3],> 100 µM
same,TGI,[4],27.3 µM
same,TGI,[5],> 100 µM
same,TGI,[6],> 100 µM
same,TGI,[7],> 100 µM
same,TGI,[8],> 100 µM
same,TGI,[9],57.4 µM
same,TGI,[10],> 100 µM
N=C(N)SCc1ccc2c(c1)Sc1ccccc1O2,TGI,[1],24.6 µM
same,TGI,[2],28.7 µM
same,TGI,[3],6.89 µM
same,TGI,[4],21.7 µM
same,TGI,[5],34.1 µM
same,TGI,[6],> 100 µM
same,TGI,[7],45.2 µM
same,TGI,[8],18.1 µM
same,TGI,[9],14.1 µM
same,TGI,[10],10.6 µM
O=C1NCCN1/N=C/c1c(Cl)n(-c2ccccc2)c2ccccc12,TGI,[1],77 µM
same,TGI,[2],48.4 µM
same,TGI,[3],36.2 µM
same,TGI,[4],39.9 µM
same,TGI,[5],> 100 µM
same,TGI,[6],68.1 µM
same,TGI,[7],44.1 µM
same,TGI,[8],76.2 µM
same,TGI,[9],43.6 µM
same,TGI,[10],46.3 µM
CC1=NN(c2cccc(Cl)c2)C2(SCC(=O)N2c2nc3ccccc3s2)/C1=C\c1ccccc1O (stereo not given),TGI,[1],32.3 µM
same,TGI,[2],42.2 µM
same,TGI,[3],42 µM
same,TGI,[4],34.1 µM
same,TGI,[5],54.7 µM
same,TGI,[6],> 100 µM
same,TGI,[7],67.9 µM
same,TGI,[8],> 100 µM
same,TGI,[9],> 100 µM
same,TGI,[10],38.5 µM
CN(C)c1ccc(C(=N/N=C2\C(=O)Nc3ccccc32)c2ccc(N(C)C)cc2)cc1,TGI,[1],13.2 µM
same,TGI,[2],17.5 µM
same,TGI,[3],17.5 µM
same,TGI,[4],18.7 µM
same,TGI,[5],41.9 µM
same,TGI,[6],39.6 µM
same,TGI,[7],13.1 µM
same,TGI,[8],> 32.6 µM
same,TGI,[9],28.2 µM
same,TGI,[10],30.8 µM
Cc1nc(N)c(N2CCN([N+](=O)[O-])CC2)c(=O)[nH]1,TGI,[1],> 100 µM
same,TGI,[2],> 100 µM
same,TGI,[3],> 100 µM
same,TGI,[4],> 100 µM
same,TGI,[5],> 100 µM
same,TGI,[6],> 100 µM
same,TGI,[7],> 100 µM
same,TGI,[8],> 100 µM
same,TGI,[9],> 100 µM
same,TGI,[10],> 100 µM
CN1CSC(=S)N(c2c3ccccc3nc3ccc(Br)cc23)C1,TGI,[1],16.6 µM
same,TGI,[2],22 µM
same,TGI,[3],8.3 µM
same,TGI,[4],20.4 µM
same,TGI,[5],51 µM
same,TGI,[6],> 32.4 µM
same,TGI,[7],22.9 µM
same,TGI,[8],25.7 µM
same,TGI,[9],21.9 µM
same,TGI,[10],22.4 µM
O=C(O)c1ccccc1CC1Cc2ccccc2C1=O (stereo not given),TGI,[1],> 100 µM
same,TGI,[2],> 100 µM
same,TGI,[3],> 100 µM
same,TGI,[4],> 100 µM
same,TGI,[5],> 100 µM
same,TGI,[6],> 100 µM
same,TGI,[7],> 100 µM
same,TGI,[8],> 100 µM
same,TGI,[9],> 100 µM
same,TGI,[10],> 100 µM
CC(=N/N=C/c1ccccn1)/C(C)=N/N=C(C)/C(C)=N/N=C(C)/C(C)=N/N=C(C)/C(C)=N\N=C\c1ccccn1,TGI,[1],> 100 µM
same,TGI,[2],> 100 µM
same,TGI,[3],> 100 µM
same,TGI,[4],> 100 µM
same,TGI,[5],> 100 µM
same,TGI,[6],> 100 µM
same,TGI,[7],> 100 µM
same,TGI,[8],> 100 µM
same,TGI,[9],> 100 µM
same,TGI,[10],> 100 µM
O=C1c2ccccc2-c2c1c(-c1ccc(F)cc1)nc1ccc3ccccc3c21,TGI,[1],> 100 µM
same,TGI,[2],> 100 µM
same,TGI,[3],> 100 µM
same,TGI,[4],> 100 µM
same,TGI,[5],> 100 µM
same,TGI,[6],> 100 µM
same,TGI,[7],> 100 µM
same,TGI,[8],> 100 µM
same,TGI,[10],> 100 µM
O=c1c2sc(=S)n(-c3ccc(F)cc3)c2ncn1/N=C/c1ccc(F)cc1F,TGI,[1],34.1 µM
same,TGI,[2],39.4 µM
same,TGI,[3],> 100 µM
same,TGI,[4],> 100 µM
same,TGI,[5],30.7 µM
same,TGI,[6],> 100 µM
same,TGI,[7],53.4 µM
same,TGI,[8],46.8 µM
same,TGI,[9],40 µM
same,TGI,[10],89.8 µM
COc1cccc2c1OC1(C=C2)Oc2ccccc2C(=O)N1C (stereo not given),TGI,[1],> 100 µM
same,TGI,[2],> 100 µM
same,TGI,[3],77.8 µM
same,TGI,[4],> 100 µM
same,TGI,[5],> 100 µM
same,TGI,[6],> 100 µM
same,TGI,[7],> 100 µM
same,TGI,[8],> 100 µM
same,TGI,[9],> 100 µM
same,TGI,[10],> 100 µM
CO[C@H]1/C=C(/C)CCC[C@H](C)[C@H](O)[C@@H](C)C(=O)C(C)(C)[C@@H](O)CC(=O)O[C@@H]1/C(C)=C/c1csc(C)n1,GI50,[2],0.0259 µM
same,TGI,[2],0.0817 µM
same,GI50,[3],0.0203 µM
same,TGI,[3],0.259 µM
same,GI50,[4],< 0.0128 µM
same,TGI,[4],> 100 µM
same,GI50,[5],0.0414 µM
same,TGI,[5],> 100 µM
same,GI50,[6],< 0.0173 µM
same,TGI,[6],> 100 µM
same,GI50,[7],0.0428 µM
same,TGI,[7],> 100 µM
same,GI50,[8],0.071 µM
same,TGI,[8],> 100 µM
same,GI50,[9],0.0366 µM
same,TGI,[9],> 100 µM
same,GI50,[10],0.0334 µM
same,TGI,[10],> 100 µM
CC1OC(OC2C(OC(=O)[C@]34CCC(C)(C)C[C@H]3C3=CC[C@@H]5[C@@]6(C)CC[C@H](OC7OC(C(=O)O)C(O)C(O)C7O)C(C)(C)[C@@H]6CC[C@@]5(C)[C@]3(C)C[C@H]4O)OCC(O)C2O)C(O)C(OC2OCC(O)(CO)C2O)C1OC1OCC(O)C(O)C1O (stereo not given in full),TGI,[1],24.7 µM
same,TGI,[2],25.8 µM
same,TGI,[3],3.32 µM
same,TGI,[4],30 µM
same,TGI,[5],32.4 µM
same,TGI,[6],35.8 µM
same,TGI,[7],12.7 µM
same,TGI,[8],22.7 µM
same,TGI,[10],8.42 µM
